Reference: patent publication US20070071699A1, “Benzylidene-1,3-thiazolidine-2,4-dione compounds for promoting and/or inducing and/or stimulating the pigmentation of keratin materials and/or for limiting their depigmentation and/or whitening” (L'OREAL, priority 2005, published 2007)

How the values were obtained:
[1] = system: tyrosinase activity of normal human epidermal melanocytes; test: Tyrosinase activity of normal human melanocytes in culture (72 h treatment, lysate, L-Dopa substrate, absorbance 450 nm); assay type: cell-based; conditions: for Stimulation of the tyrosinase activity: 72 h
Procedure: a) Melanocyte Culture Conditions:
Normal human epidermal melanocytes are cultured (9th passage) in melanocyte growth medium M2 supplemented with:
Promocell C24300 supplements
Penicillin 50 IU/ml and streptomycin 50 μg/ml (Invitrogen) under standard temperature conditions (37° C.) at 5% CO2.
b) Preparation of the Solutions of the Test Compound:
The final titre of the prepared solutions is 10 mM. The final test concentrations range from 0.1 to 10 μM (PGE2) and 1 to 10 μM (15-PGDH inhibitors).
c)Principle of the Tests:
The tests performed consist in measuring the […] alone or combined with PGE2* on the overall activity of tyrosinase. *PGE2 is a pigmentation modulator that is deactivated by the enzyme 15-PGDH.
The melanocytes are cultured in 96-well plates up to confluence (culture conditions described in a) and the supernatant of each of the wells is then removed and replaced with the medium containing the compounds to be evaluated.
Thus (in triplicate), the 15-PGDH inhibitor alone at 1 μM and 10 μM or, for each of these first conditions, in the presence of 0.1 μM, 1 μM or 10 μM of PGE2.
The cultures are maintained under these various conditions for 72 h, the supernatants are then removed and the cell lawns are washed with a phosphate buffer (pH=7.2). The cells are lysed with a pH 7.2 phosphate buffer containing 1% Triton X100.
The tyrosinase activity of each of the lysates is then estimated against a fungal tyrosinase range (Sigma T7755).
The methodology implemented uses L-Dopa as reaction substrate (45 minutes at 37° C.); the formation of melanin is assessed by measuring the absorbance at 450 nm.
In this test, two references are also evaluated: kojic acid (a tyrosinase inhibitor introduced at 0.1% into the culture medium) and isobutyl methyl xanthine (IBMX), a phosphodiesterase inhibitor which, by limiting the catabolism of cAMP, contributes towards increasing the overall tyrosinase activity as assessed in this test.

type-1 15-PGDH = biological target: T1, type-1 15-PGDH (Homo sapiens, UniProt P15428); test: Test on type-1 15-PGDH (spectrophotometric, NADH formation at 340 nm, PGE2 substrate); assay type: biochemical; conditions: 37° C., pH 7.4 Tris buffer, 1.5 mM β-NAD, 50 μM Prostaglandin E2
T1 construct: made in house
T1 sequence (P15428 1-266): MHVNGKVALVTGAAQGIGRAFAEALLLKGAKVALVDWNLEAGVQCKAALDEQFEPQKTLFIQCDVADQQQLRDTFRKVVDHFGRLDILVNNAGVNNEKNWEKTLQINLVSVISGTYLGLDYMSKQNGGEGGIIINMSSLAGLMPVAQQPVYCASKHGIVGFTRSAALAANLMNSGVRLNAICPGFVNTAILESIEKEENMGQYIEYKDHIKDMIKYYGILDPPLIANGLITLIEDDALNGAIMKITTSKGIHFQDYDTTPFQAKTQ
Procedure: For the purposes of the test, this suspension is thawed and stored in ice.
0.965 ml of this buffer (brought to 37° C. beforehand) is introduced into the cuvette of a spectrophotometer (Perkin-Elmer, Lambda 2) thermostatically maintained at 37° C., the measuring wavelength of which is set at 340 nm. 0.035 mL of enzymatic suspension at 37° C. is introduced into the cuvette concomitantly with the recording (corresponding to an increase in the optical density at 340 nm). The maximum reaction rate is recorded.

CC(C)(C)c1ccc(Oc2ccccc2/C=C2\SC(=O)N=C2[O-])cc1.[Na+] [Compound 4, (5Z)-5-[2-(4-tert-butylphenoxy)benzylidene]-1,3-thiazolidine-2,4-dione]
Stimulation of the tyrosinase activity ([1]; Compound 4 1 μM + PGE2 0.1 μM): +27%
Stimulation of the tyrosinase activity ([1]; Compound 4 1 μM + PGE2 1 μM): +40%
Stimulation of the tyrosinase activity ([1]; Compound 4 1 μM + PGE2 10 μM): +32%
Stimulation of the tyrosinase activity ([1]; Compound 4 1 μM alone): +16%

O=C1NC(=O)/C(=C\c2ccc(OCc3cccc(Cl)c3)cc2)S1 [Compound 13]
IC50 (type-1 15-PGDH): 5 µM

O=C1NC(=O)/C(=C/c2ccccc2Oc2ccc(Br)c(F)c2)S1 [Compound 14]
IC50 (type-1 15-PGDH): 1.55 µM

CCCCC[C@H](O)/C=C/[C@H]1[C@H](O)CC(=O)[C@@H]1C/C=C\CCCC(=O)O [PGE2, Prostaglandin E2, reference compound]
Stimulation of the activity of tyrosinase ([1]; PGE2 alone at 0.1 μM): +3%
Stimulation of the activity of tyrosinase ([1]; PGE2 alone at 1 μM): +9%
